Measured values from US20220054532A1, “VETERINARY COMPOSITIONS AND METHODS OF USE THEREFOR” (priority 2019, published 2022).

Experiments:
Type in all cases: in vivo
[1] = system: cats suffering from GI-specific inflammation; assay: Example 3: GI-specific inflammation, owner-rated symptom reduction (feline); settings: symptom reduction score 0 (no reduction) to 4 (resolution of symptoms); for Final Score: after 28 days BID
Excerpt: (§1) This example examines the ability of embodiments of the invention versus Pepcid® to treat unwanted GI-specific inflammation characterized by gastritis, reflux, vomiting, diarrhea, and inappetence.
(§2) The first patient group is twenty dogs suffering from GI-specific inflammation. The second patient group is twenty cats suffering from GI-specific inflammation. Each patient group is broken into five groups of four animals. The first groups receive Pepcid® as the sole active agent; the second groups receive a composition comprising HMW HA as the sole active agent; the third groups receive a composition comprising CBD as the sole active agent; the fourth groups receive a composition comprising HMW HA and CBD as the active agents; and the fifth groups receive a composition comprising HMW HA, CBD, and glutathione as the active agents.
(§3) Each composition is administered for a period of twenty-eight (28) days, BID. The owner observes potential reduction of symptoms at the end of treatment and rates the reduction as no reduction (score of 0), mild reduction (score of 1), moderate reduction (score of 2), significant reduction (score of 3), or resolution of symptoms (score of 4).
The following feline scores are observed and the results depicted in FIG. 3b: […]

[2] = system: dogs suffering from joint inflammation; assay: Example 4: joint inflammation, thermal imaging (canine); settings: over the inflamed joint, 60 days BID
Excerpt: (§4) This example examines the ability of embodiments of the invention versus Cosequin® to treat joint inflammation.
The first patient group is twenty dogs suffering from joint inflammation. The second patient group is twenty cats suffering from joint inflammation. The third patient group is twenty horses suffering from joint inflammation. Each patient group is broken into five groups of four animals. The first groups receive Cosequin® as the sole active agent; the second groups receive a composition comprising HMW HA as the sole active agent; the third groups receive a composition comprising CBD as the sole active agent; the fourth groups receive a composition comprising HMW HA and CBD as the active agents; and the fifth groups receive a composition comprising HMW HA, CBD, Boswellia, and superoxide dismutase (“SOD”) as the active agents.
(§5) Each composition is administered for a period of sixty (60) days, BID. Efficacy is determined by a decrease in body temperature over the inflamed joint, as measured by thermal imaging (e.g., via Digatherm device). Thermal imaging is performed on days 0 (“Initial Score”), 15, 30, 45, and 60 (“Final Score”) of treatment.
The following canine scores are observed and the results depicted in FIG. 4a: […]

[3] = system: dogs suffering from GI-specific inflammation; assay: Example 11: GI-specific inflammation, owner-rated symptom reduction (canine, CBD Complex); settings: canine (FIG. 11a), symptom reduction score 0 (no reduction) to 4 (resolution of symptoms); for Final Score: after 28 days BID
Excerpt: as §1
as §2, with “and CBD Complex as the” for “and CBD as the”, “HMW HA, CBD Complex, and glutathione” for “HMW HA, CBD, and glutathione”
as §3

[4] = system: dogs suffering from seizures; assay: Example 14: seizures in dogs (CBD Complex); settings: seizure scale 1 (seizure-free) to 10 (daily or multiple seizures); for Initial Score: day 0; for Final Score: day 60, BID
Excerpt: This example examines the ability of embodiments of the invention versus phenobarbital to treat seizures.
The patient group is twenty-four dogs suffering from seizures as diagnosed by their referring veterinarian. The patient group is broken into six groups of four animals. The first group receives phenobarbital as the sole active agent; the second group receives a composition comprising phenobarbital and Keppra®; the third group receives a composition comprising HMW HA as the sole active agent; the fourth group receives a composition comprising CBD as the sole active agent; the fifth group receives a composition comprising HMW HA and CBD Complex as the active agents; and the sixth group receives a composition comprising HMW HA, CBD Complex, valerian root, and scutillaria as the active agents.
Each composition is administered for a period of sixty (60) days, BID. Each dog is evaluated on days 0 (“Initial Score”), 15, 30, 45, and 60 (“Final Score”) of treatment. The results are averaged and characterized on a scale of 1 (seizure-free) to 10 (daily seizures or multiple seizures during the event).
The following canine scores are observed and the results depicted in FIG. 14: […]

[5] = system: cats suffering from joint inflammation; assay: Example 12: joint inflammation, thermal imaging (feline, CBD Complex); settings: over the inflamed joint, 60 days BID
Excerpt: as §4
(§6) The first patient group is twenty dogs suffering from joint inflammation. The second patient group is twenty cats suffering from joint inflammation. The third patient group is twenty horses suffering from joint inflammation. Each patient group is broken into five groups of four animals. The first groups receive Cosequin® as the sole active agent; the second groups receive a composition comprising HMW HA as the sole active agent; the third groups receive a composition comprising CBD as the sole active agent; the fourth groups receive a composition comprising HMW HA and CBD Complex as the active agents; and the fifth groups receive a composition comprising HMW HA, CBD Complex, Boswellia, and superoxide dismutase (“SOD”) as the active agents.
as §5
The following feline scores are observed and the results depicted in FIG. 12b: […]

[6] = system: dogs suffering from GI-specific inflammation; assay: Example 3: GI-specific inflammation, owner-rated symptom reduction (canine); settings: symptom reduction score 0 (no reduction) to 4 (resolution of symptoms); for Final Score: after 28 days BID
Excerpt: as §1, §2, §3
The following canine scores are observed and the results depicted in FIG. 3a: […]

[7] = system: dogs suffering from joint inflammation; assay: Example 12: joint inflammation, thermal imaging (canine, CBD Complex); settings: over the inflamed joint, 60 days BID
Excerpt: as §4, §6, §5
The following canine scores are observed and the results depicted in FIG. 12a: […]

Compound	Final Score [1]	Initial Score [1]	Reduction in Temperature (° F.) [2] [° F.]	Final Score [3]	Initial Score [3]	Initial Score [4]	Final Score [4]	Reduction in Temperature (° F.) [5] [° F.]	Final Score [6]	Initial Score [6]	Reduction in Temperature (° F.) [7] [° F.]
C=C(C)[C@@H]1CCC(C)=C[C@H]1c1c(O)cc(CCCCC)cc1O [CBD Alone, 2-[(1R,6R)-3-methyl-6-prop-1-en-2-ylcyclohex-2-en-1-yl]-5-pentylbenzene-1,3-diol]	2	0	1.7	2	0	9	4	2.0	2	0	1.7
hyaluronic acid [HMW HA Alone]	3	0	1.9	3	0	9	5	2.3	3	0	1.9
